The data set concerns the target UBE3A-ATS. The experiment in a line: mouse, dose not given. Particulars: ASO.

HELM strings list units from the 5' end as sugar, base in round brackets, then linkage (d deoxyribose, r ribose, m 2'-O-methyl, p phosphodiester). Strings are as the collection lists them; they lack the last nucleoside at the 3' end of the tested compound. [moe] = 2'-O-(2-methoxyethyl) (MOE); [sp] = phosphorothioate linkage; [m5C] = 5-methylcytosine

This passage reports 3 h FOB score results from the OligoGym collection.

Substance “RNA1{[moe](T)[sp].[moe](G)p.[moe](A)p.[moe](G)p.[moe]([m5C])[sp].d(T)[sp].d(A)[sp].d(T)[sp].d([m5C])[sp].d(T)[sp].d(G)[sp].d(T)[sp].d(A)[sp].[moe]([m5C])p.[moe](A)p.[moe](A)[sp].[moe](A)}$$$$ (last 3' nucleoside missing)” yielded a 3 h FOB score of 4.7 score 0-7.
“RNA1{[moe](T)[sp].[moe](T)p.[moe](G)p.[moe](G)p.[moe](T)p.[moe]([m5C])p.d(A)[sp].d(T)[sp].d([m5C])[sp].d(T)[sp].d([m5C])[sp].d(G)[sp].d(G)[sp].d(G)[sp].d(T)[sp].d(A)[sp].[moe](T)p.[moe](A)[sp].[moe](T)}$$$$ (last 3' nucleoside missing)” displayed a 3 h FOB score of 6.5 score 0-7.
“RNA1{[moe](A)[sp].[moe](T)p.[moe](A)p.[moe](G)p.[moe]([m5C])p.d([m5C])[sp].d([m5C])[sp].d(T)[sp].d(T)[sp].d(T)[sp].d([m5C])[sp].d(A)[sp].d(G)[sp].d([m5C])[sp].d(A)[sp].[moe]([m5C])p.[moe](A)p.[moe]([m5C])[sp].[moe](T)}$$$$ (last 3' nucleoside missing)” returned a 3 h FOB score of 3.5 score 0-7.
The substance “RNA1{[moe](T)[sp].[moe]([m5C])p.[moe](A)p.[moe](G)p.d(T)[sp].d(T)[sp].d(A)[sp].d(G)[sp].d(G)[sp].d(T)[sp].d(T)[sp].d(A)[sp].d(G)[sp].d(T)[sp].[moe](G)p.[moe]([m5C])p.[moe](A)p.[moe]([m5C])[sp].[moe](A)}$$$$ (last 3' nucleoside missing)” gave a 3 h FOB score of 4 score 0-7.
For “RNA1{[moe](T)[sp].[moe](G)p.[moe](G)p.[moe](T)p.[moe]([m5C])p.[moe](A)[sp].d(T)[sp].d([m5C])[sp].d(T)[sp].d([m5C])[sp].d(G)[sp].d(G)[sp].d(G)[sp].d(T)[sp].[moe](A)p.[moe](T)[sp].[moe](A)}$$$$ (last 3' nucleoside missing)” the value was 4.7 score 0-7; for “RNA1{[moe](A)[sp].[moe](G)p.[moe](A)p.[moe]([m5C])p.[moe]([m5C])p.d(T)[sp].d(A)[sp].d(T)[sp].d(A)[sp].d(G)[sp].d(G)[sp].d(A)[sp].d([m5C])[sp].d([m5C])[sp].d(T)[sp].[moe]([m5C])p.[moe](A)p.[moe](G)[sp].[moe](G)}$$$$ (last 3' nucleoside missing)”, 4 score 0-7.
Take “RNA1{[moe](A)[sp].[moe](T)p.[moe](T)p.[moe]([m5C])p.[moe](A)p.d(G)[sp].d(A)[sp].d(T)[sp].d(A)[sp].d([m5C])[sp].d(T)[sp].d(A)[sp].d(G)[sp].d(T)[sp].d(T)[sp].[moe](T)p.[moe](A)p.[moe]([m5C])[sp].[moe]([m5C])}$$$$ (last 3' nucleoside missing)”: the 3 h FOB score is 2.8 score 0-7.
The substance “RNA1{[moe](A)[sp].[moe](T)p.[moe]([m5C])p.[moe](T)p.[moe](G)p.d(G)[sp].d(T)[sp].d([m5C])[sp].d(T)[sp].d(T)[sp].d(G)[sp].d(G)[sp].d(G)[sp].d(A)[sp].d(T)[sp].[moe](T)p.[moe](A)p.[moe](T)[sp].[moe](A)}$$$$ (last 3' nucleoside missing)” gave a 3 h FOB score of 4.8 score 0-7.
Take “RNA1{[moe](A)[sp].[moe](T)p.[moe]([m5C])p.[moe](T)p.[moe]([m5C])p.d(G)[sp].d(G)[sp].d(G)[sp].d(T)[sp].d(A)[sp].d(T)[sp].d(A)[sp].d(T)[sp].d(A)[sp].d(A)[sp].[moe](A)p.[moe](T)p.[moe](T)[sp].[moe](A)}$$$$ (last 3' nucleoside missing)”: the 3 h FOB score was found to be 0 score 0-7.
For “RNA1{[moe](G)[sp].[moe](A)p.[moe](A)p.[moe]([m5C])p.[moe](T)p.d(A)[sp].d(T)[sp].d([m5C])[sp].d([m5C])[sp].d(T)[sp].d(G)[sp].d([m5C])[sp].d(A)[sp].d(T)[sp].d([m5C])[sp].[moe]([m5C])p.[moe](G)p.[moe](A)[sp].[moe](G)}$$$$ (last 3' nucleoside missing)” the value was 4.2 score 0-7; for “RNA1{[moe](G)[sp].[moe](T)p.[moe](A)p.[moe](T)p.[moe](A)p.d(T)[sp].d(T)[sp].d(G)[sp].d(T)[sp].d(A)[sp].d(G)[sp].d([m5C])[sp].d(T)[sp].d(T)[sp].d(T)[sp].[moe](T)p.[moe]([m5C])p.[moe](T)[sp].[moe](A)}$$$$ (last 3' nucleoside missing)”, 6.2 score 0-7; for “RNA1{[moe](G)[sp].[moe](T)p.[moe]([m5C])p.[moe](T)p.[moe]([m5C])p.d([m5C])[sp].d([m5C])[sp].d(T)[sp].d([m5C])[sp].d(T)[sp].d(T)[sp].d(A)[sp].d(G)[sp].d(T)[sp].d(G)[sp].[moe](A)p.[moe](T)p.[moe](T)[sp].[moe](G)}$$$$ (last 3' nucleoside missing)”, 4 score 0-7.
Under “RNA1{[moe](G)[sp].[moe]([m5C])p.[moe](A)p.[moe]([m5C])p.[moe](A)p.d(T)[sp].d(A)[sp].d(G)[sp].d(A)[sp].d([m5C])[sp].d([m5C])[sp].d(A)[sp].d(T)[sp].d(A)[sp].d(G)[sp].[moe]([m5C])p.[moe](T)p.[moe](G)[sp].[moe](A)}$$$$ (last 3' nucleoside missing)” stands 3.3 score 0-7; under “RNA1{[moe](T)[sp].[moe](G)p.[moe](A)p.[moe](G)p.d([m5C])[sp].d(T)[sp].d(A)[sp].d(T)[sp].d([m5C])[sp].d(T)[sp].d(G)[sp].d(T)[sp].d(A)[sp].d([m5C])[sp].[moe](A)p.[moe](A)p.[moe](A)p.[moe](A)[sp].[moe](T)}$$$$ (last 3' nucleoside missing)”, 5.5 score 0-7; under “RNA1{[moe](T)[sp].[moe](G)p.[moe]([m5C])p.[moe](T)[sp].d([m5C])[sp].d(A)[sp].d(G)[sp].d(T)[sp].d(T)[sp].d(A)[sp].d(G)[sp].d(G)[sp].[moe](T)p.[moe](T)p.[moe](A)p.[moe](G)[sp].[moe](T)}$$$$ (last 3' nucleoside missing)”, 7 score 0-7.
As to “RNA1{[moe](G)[sp].[moe](G)p.[moe](T)p.[moe]([m5C])p.[moe](A)p.d(G)[sp].d(A)[sp].d(T)[sp].d(T)[sp].d([m5C])[sp].d([m5C])[sp].d(T)[sp].d(A)[sp].d(A)[sp].d(A)[sp].[moe](T)p.[moe](A)p.[moe]([m5C])[sp].[moe](G)}$$$$ (last 3' nucleoside missing)”, the 3 h FOB score came out at 1 score 0-7.
For “RNA1{[moe](G)[sp].[moe](A)p.[moe](G)p.[moe]([m5C])p.[moe](T)p.[moe](A)[sp].d(T)[sp].d([m5C])[sp].d(T)[sp].d(G)[sp].d(T)[sp].d(A)[sp].d([m5C])[sp].d(A)[sp].[moe](A)p.[moe](A)[sp].[moe](A)}$$$$ (last 3' nucleoside missing)”, the 3 h FOB score is 4.7 score 0-7.
For “RNA1{[moe](G)[sp].[moe](T)p.[moe](A)p.[moe]([m5C])p.[moe](A)p.d(A)[sp].d(T)[sp].d(G)[sp].d([m5C])[sp].d(A)[sp].d(T)[sp].d(G)[sp].d(T)[sp].d(G)[sp].d(G)[sp].[moe](G)p.[moe]([m5C])p.[moe]([m5C])[sp].[moe](T)}$$$$ (last 3' nucleoside missing)” the value was 4 score 0-7; for “RNA1{[moe](G)[sp].[moe](T)p.[moe](T)p.[moe](T)p.d(T)[sp].d(T)[sp].d([m5C])[sp].d([m5C])[sp].d(A)[sp].d(T)[sp].d(T)[sp].d(T)[sp].d(T)[sp].d(T)[sp].[moe]([m5C])p.[moe](T)p.[moe]([m5C])p.[moe](T)[sp].[moe](T)}$$$$ (last 3' nucleoside missing)”, 0 score 0-7; for “RNA1{[moe](T)[sp].[moe](G)p.[moe]([m5C])p.[moe](T)p.[moe](T)p.d([m5C])[sp].d(A)[sp].d([m5C])[sp].d([m5C])[sp].d(A)[sp].d(T)[sp].d(T)[sp].d(T)[sp].d(T)[sp].d(G)[sp].[moe](A)p.[moe]([m5C])p.[moe]([m5C])[sp].[moe](T)}$$$$ (last 3' nucleoside missing)”, 1 score 0-7.
Consider “RNA1{[moe](G)[sp].[moe]([m5C])p.[moe](T)p.[moe](A)p.[moe](T)p.d(A)[sp].d(G)[sp].d(G)[sp].d(T)[sp].d(G)[sp].d(T)[sp].d([m5C])[sp].d(A)[sp].d([m5C])[sp].d(A)[sp].[moe](T)p.[moe](A)p.[moe](T)[sp].[moe](T)}$$$$ (last 3' nucleoside missing)”, for which the 3 h FOB score was found to be 2 score 0-7.
“RNA1{[moe](T)[sp].[moe](G)p.[moe](T)p.[moe](A)p.[moe](T)p.d([m5C])[sp].d(A)[sp].d(G)[sp].d(G)[sp].d([m5C])[sp].d(A)[sp].d(A)[sp].d([m5C])[sp].d(A)[sp].d(G)[sp].[moe](A)p.[moe](A)p.[moe](T)[sp].[moe]([m5C])}$$$$ (last 3' nucleoside missing)” gave a 3 h FOB score of 4.7 score 0-7.
For the substance “RNA1{[moe]([m5C])[sp].[moe](A)p.[moe](G)p.[moe](A)p.[moe]([m5C])p.d(T)[sp].d(T)[sp].d(A)[sp].d(T)[sp].d(T)[sp].d(G)[sp].d(A)[sp].d(G)[sp].d(G)[sp].d(A)[sp].[moe](T)p.[moe](G)p.[moe](G)[sp].[moe](T)}$$$$ (last 3' nucleoside missing)”, the 3 h FOB score is 5.7 score 0-7.
For “RNA1{[moe](G)[sp].[moe]([m5C])p.[moe](A)p.[moe](T)p.[moe](G)p.d(T)[sp].d(G)[sp].d(G)[sp].d(G)[sp].d([m5C])[sp].d([m5C])[sp].d(T)[sp].d([m5C])[sp].d(T)[sp].d(A)[sp].[moe](T)p.[moe](T)p.[moe](A)[sp].[moe](A)}$$$$ (last 3' nucleoside missing)” the value was 4 score 0-7.
For “RNA1{[moe]([m5C])[sp].[moe](T)p.[moe](G)p.[moe](G)p.[moe](T)p.d(A)[sp].d(G)[sp].d(G)[sp].d(A)[sp].d(T)[sp].d([m5C])[sp].d(T)[sp].d(A)[sp].d(T)[sp].d(G)[sp].[moe](G)p.[moe]([m5C])p.[moe](A)[sp].[moe](G)}$$$$ (last 3' nucleoside missing)” the value was 2.3 score 0-7; for “RNA1{[moe](T)[sp].[moe](G)p.[moe](T)p.[moe]([m5C])p.[moe](T)p.d([m5C])[sp].d(T)[sp].d(A)[sp].d(A)[sp].d(T)[sp].d([m5C])[sp].d([m5C])[sp].d(T)[sp].d(A)[sp].d(T)[sp].[moe](T)p.[moe]([m5C])p.[moe]([m5C])[sp].[moe](A)}$$$$ (last 3' nucleoside missing)”, 0 score 0-7.
